Results published in the supplement of paper PMC10307832.

Legend:
Assay in all cases: relative viability (nuclei count vs DMSO), 5 days (fraction); higher = more cells survive
[1] = compound: C=CCn1c(=O)c2cnc(Nc3ccc(N4CCN(C)CC4)cc3)nc2n1-c1cccc(C(C)(C)O)n1 [Adavosertib] + COc1cccc2cc(-c3nc([C@H]4CC[C@H](C(=O)O)CC4)n4ncnc(N)c34)[nH]c12 [OSI-027] (partner 0.5 µM)
Procedure, shortened: (§1)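 Lung cancer cell lines were seeded in 1536-well plates and dosed by pin tool the next day, with either a single drug or a fixed anchor-drug dose combined with five library-drug doses (not always all listed) spaced in √10 steps. Five days later, one step fixed the cells and stained their nuclei (final 0.05% Triton X-100, 1% formaldehyde, 1 ug/ml Hoechst), and nuclei were counted on 4× images. Relative viability is the nuclei count in treated wells divided by the count in vehicle wells, and each value is the median of duplicate plates.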

[2] = compound: C=CCn1c(=O)c2cnc(Nc3ccc(N4CCN(C)CC4)cc3)nc2n1-c1cccc(C(C)(C)O)n1 [Adavosertib] + Cc1cc(Nc2cc(N3CCN(C)CC3)nc(Sc3ccc(NC(=O)C4CC4)cc3)n2)n[nH]1 [Tozasertib] (partner 0.1 µM)
Procedure, shortened: as §1

[3] = compound: C=CCn1c(=O)c2cnc(Nc3ccc(N4CCN(C)CC4)cc3)nc2n1-c1cccc(C(C)(C)O)n1 [Adavosertib] + CS(=O)(=O)N1CCN(Cc2cc3nc(-c4cccc5[nH]ncc45)nc(N4CCOCC4)c3s2)CC1 [Pictilisib] (partner 1 µM)
Procedure, shortened: as §1

[4] = compound: C=CCn1c(=O)c2cnc(Nc3ccc(N4CCN(C)CC4)cc3)nc2n1-c1cccc(C(C)(C)O)n1 [Adavosertib] + C[C@@H](Oc1cc(-c2cnn(C3CCNCC3)c2)cnc1N)c1c(Cl)ccc(F)c1Cl [Crizotinib] (partner 1 µM)
Procedure, shortened: as §1

[5] = compound: C=CCn1c(=O)c2cnc(Nc3ccc(N4CCN(C)CC4)cc3)nc2n1-c1cccc(C(C)(C)O)n1 [Adavosertib] + C[C@]1(O)C[C@@H](c2nc(-c3ccc4ccc(-c5ccccc5)nc4c3)c3c(N)nccn32)C1 [Linsitinib] (partner 1 µM)
Procedure, shortened: as §1

ABC-1
relative viability ([1]; first compound 0.01 µM): 0.411
relative viability ([1]; first compound 0.03162 µM): 0.406
relative viability ([1]; first compound 0.1 µM): 0.405
relative viability ([1]; first compound 0.3162 µM): 0.419
relative viability ([2]; first compound 0.01 µM): 0.208
relative viability ([2]; first compound 0.03162 µM): 0.161
relative viability ([2]; first compound 0.1 µM): 0.166
relative viability ([2]; first compound 0.3162 µM): 0.145
relative viability ([3]; first compound 0.01 µM): 0.586
relative viability ([3]; first compound 0.03162 µM): 0.695
relative viability ([3]; first compound 0.1 µM): 0.528
relative viability ([3]; first compound 0.3162 µM): 0.627
relative viability ([4]; first compound 0.01 µM): 1.16
relative viability ([4]; first compound 0.03162 µM): 1.19
relative viability ([4]; first compound 0.1 µM): 1.05
relative viability ([4]; first compound 0.3162 µM): 1.31
relative viability ([5]; first compound 0.01 µM): 1.03
relative viability ([5]; first compound 0.03162 µM): 0.849
relative viability ([5]; first compound 0.1 µM): 0.647
relative viability ([5]; first compound 0.3162 µM): 0.682

NCI-H358
relative viability ([1]; first compound 0.01 µM): 0.786
relative viability ([1]; first compound 0.03162 µM): 0.913
relative viability ([1]; first compound 0.1 µM): 0.637
relative viability ([1]; first compound 0.3162 µM): 0.326
relative viability ([2]; first compound 0.01 µM): 0.104
relative viability ([2]; first compound 0.03162 µM): 0.0953
relative viability ([2]; first compound 0.1 µM): 0.102
relative viability ([2]; first compound 0.3162 µM): 0.0852
relative viability ([3]; first compound 0.01 µM): 0.356
relative viability ([3]; first compound 0.03162 µM): 0.312
relative viability ([3]; first compound 0.1 µM): 0.353
relative viability ([3]; first compound 0.3162 µM): 0.285
relative viability ([4]; first compound 0.01 µM): 0.542
relative viability ([4]; first compound 0.03162 µM): 0.559
relative viability ([4]; first compound 0.1 µM): 0.507
relative viability ([4]; first compound 0.3162 µM): 0.309
relative viability ([5]; first compound 0.01 µM): 0.747
relative viability ([5]; first compound 0.03162 µM): 0.675
relative viability ([5]; first compound 0.1 µM): 0.547
relative viability ([5]; first compound 0.3162 µM): 0.374

NCI-H520
relative viability ([1]; first compound 0.01 µM): 0.298
relative viability ([1]; first compound 0.03162 µM): 0.262
relative viability ([1]; first compound 0.1 µM): 0.212
relative viability ([1]; first compound 0.3162 µM): 0.224
relative viability ([2]; first compound 0.01 µM): 0.406
relative viability ([2]; first compound 0.03162 µM): 0.437
relative viability ([2]; first compound 0.1 µM): 0.347
relative viability ([2]; first compound 0.3162 µM): 0.411
relative viability ([3]; first compound 0.01 µM): 0.288
relative viability ([3]; first compound 0.03162 µM): 0.286
relative viability ([3]; first compound 0.1 µM): 0.381
relative viability ([3]; first compound 0.3162 µM): 0.269
relative viability ([4]; first compound 0.01 µM): 0.925
relative viability ([4]; first compound 0.03162 µM): 0.83
relative viability ([4]; first compound 0.1 µM): 0.94
relative viability ([4]; first compound 0.3162 µM): 0.579
relative viability ([5]; first compound 0.01 µM): 0.883
relative viability ([5]; first compound 0.03162 µM): 0.794
relative viability ([5]; first compound 0.1 µM): 1.11
relative viability ([5]; first compound 0.3162 µM): 0.874

NCI-H2405
relative viability ([1]; first compound 0.01 µM): 0.668
relative viability ([1]; first compound 0.03162 µM): 0.667
relative viability ([1]; first compound 0.1 µM): 0.669
relative viability ([1]; first compound 0.3162 µM): 0.628
relative viability ([2]; first compound 0.01 µM): 0.807
relative viability ([2]; first compound 0.03162 µM): 0.83
relative viability ([2]; first compound 0.1 µM): 0.835
relative viability ([2]; first compound 0.3162 µM): 0.877
relative viability ([3]; first compound 0.01 µM): 0.466
relative viability ([3]; first compound 0.03162 µM): 0.412
relative viability ([3]; first compound 0.1 µM): 0.437
relative viability ([3]; first compound 0.3162 µM): 0.373
relative viability ([4]; first compound 0.01 µM): 0.804
relative viability ([4]; first compound 0.03162 µM): 0.875
relative viability ([4]; first compound 0.1 µM): 0.872
relative viability ([4]; first compound 0.3162 µM): 0.879
relative viability ([5]; first compound 0.01 µM): 0.959
relative viability ([5]; first compound 0.03162 µM): 0.966
relative viability ([5]; first compound 0.1 µM): 1
relative viability ([5]; first compound 0.3162 µM): 0.995

NCI-H2023
relative viability ([1]; first compound 0.01 µM): 0.465
relative viability ([1]; first compound 0.03162 µM): 0.35
relative viability ([1]; first compound 0.1 µM): 0.304
relative viability ([1]; first compound 0.3162 µM): 0.203
relative viability ([2]; first compound 0.01 µM): 0.453
relative viability ([2]; first compound 0.03162 µM): 0.391
relative viability ([2]; first compound 0.1 µM): 0.414
relative viability ([2]; first compound 0.3162 µM): 0.266
relative viability ([3]; first compound 0.01 µM): 0.251
relative viability ([3]; first compound 0.03162 µM): 0.21
relative viability ([3]; first compound 0.1 µM): 0.197
relative viability ([3]; first compound 0.3162 µM): 0.143
relative viability ([4]; first compound 0.01 µM): 0.717
relative viability ([4]; first compound 0.03162 µM): 0.681
relative viability ([4]; first compound 0.1 µM): 0.573
relative viability ([4]; first compound 0.3162 µM): 0.551
relative viability ([5]; first compound 0.01 µM): 0.638
relative viability ([5]; first compound 0.03162 µM): 0.742
relative viability ([5]; first compound 0.1 µM): 0.505
relative viability ([5]; first compound 0.3162 µM): 0.392

NCI-H1975
relative viability ([1]; first compound 0.01 µM): 0.733
relative viability ([1]; first compound 0.03162 µM): 0.644
relative viability ([1]; first compound 0.1 µM): 0.606
relative viability ([1]; first compound 0.3162 µM): 0.493
relative viability ([2]; first compound 0.01 µM): 0.842
relative viability ([2]; first compound 0.03162 µM): 0.794
relative viability ([2]; first compound 0.1 µM): 0.835
relative viability ([2]; first compound 0.3162 µM): 0.525
relative viability ([3]; first compound 0.01 µM): 0.267
relative viability ([3]; first compound 0.03162 µM): 0.279
relative viability ([3]; first compound 0.1 µM): 0.261
relative viability ([3]; first compound 0.3162 µM): 0.19
relative viability ([4]; first compound 0.01 µM): 0.962
relative viability ([4]; first compound 0.03162 µM): 0.952
relative viability ([4]; first compound 0.1 µM): 0.904
relative viability ([4]; first compound 0.3162 µM): 0.625
relative viability ([5]; first compound 0.01 µM): 1
relative viability ([5]; first compound 0.03162 µM): 0.951
relative viability ([5]; first compound 0.1 µM): 0.891
relative viability ([5]; first compound 0.3162 µM): 0.522

EPLC-272H
relative viability ([1]; first compound 0.01 µM): 0.31
relative viability ([1]; first compound 0.03162 µM): 0.279
relative viability ([1]; first compound 0.1 µM): 0.242
relative viability ([1]; first compound 0.3162 µM): 0.208
relative viability ([2]; first compound 0.01 µM): 0.281
relative viability ([2]; first compound 0.03162 µM): 0.315
relative viability ([2]; first compound 0.1 µM): 0.197
relative viability ([2]; first compound 0.3162 µM): 0.277
relative viability ([3]; first compound 0.01 µM): 0.277
relative viability ([3]; first compound 0.03162 µM): 0.414
relative viability ([3]; first compound 0.1 µM): 0.303
relative viability ([3]; first compound 0.3162 µM): 0.295
relative viability ([4]; first compound 0.01 µM): 1.01
relative viability ([4]; first compound 0.03162 µM): 1.03
relative viability ([4]; first compound 0.1 µM): 0.797
relative viability ([4]; first compound 0.3162 µM): 0.652
relative viability ([5]; first compound 0.01 µM): 1.12
relative viability ([5]; first compound 0.03162 µM): 1.14
relative viability ([5]; first compound 0.1 µM): 0.958
relative viability ([5]; first compound 0.3162 µM): 0.878

ChaGo-K-1
relative viability ([1]; first compound 0.01 µM): 0.546
relative viability ([1]; first compound 0.03162 µM): 0.633
relative viability ([1]; first compound 0.1 µM): 0.511
relative viability ([1]; first compound 0.3162 µM): 0.591
relative viability ([2]; first compound 0.01 µM): 0.228
relative viability ([2]; first compound 0.03162 µM): 0.243
relative viability ([2]; first compound 0.1 µM): 0.229
relative viability ([2]; first compound 0.3162 µM): 0.228
relative viability ([3]; first compound 0.01 µM): 0.579
relative viability ([3]; first compound 0.03162 µM): 0.678
relative viability ([3]; first compound 0.1 µM): 0.663
relative viability ([3]; first compound 0.3162 µM): 0.631
relative viability ([4]; first compound 0.01 µM): 1.05
relative viability ([4]; first compound 0.03162 µM): 1.05
relative viability ([4]; first compound 0.1 µM): 1.21
relative viability ([4]; first compound 0.3162 µM): 1.12
